The source of these data is patent publication US20260234630A1, “Methods for Treating Multiple Myeloma” (Celgene Corporation, priority 2022, published 2026).

The subject of this experiment is UHRF1. Put plainly: Western blot of UHRF1 protein in MM cells. The experiment is classed as cell-based. As to the method:
FIG. 1A-1F. Down regulation of UHRF1 transcription by IMiDs correlates with drug sensitivity of multiple myeloma. (1A) Volcano plot of protein expression changes determined by mass spectrometry in H929 cells at 24 hr of treatment with CC-220 (0.1 μM) or DMSO control. X axis, Log2fold change (FC); Y axis, significance,-log 10 [p-value]. […] (1B) Volcano plot of gene expression changes determined by Affymetrix microarray in H929 cells treated with POM (1 μM) or DMSO for 24 hr. X axis, Log2fold change (FC); Y axis, significance,-log 10 [p-value], n=2 technical replicates). […] (1C) Western blot analysis protein expression of UHRF1, Ikaros, Aiolos and ZFP91 in H929 cells treated with 1 μM POM for indicated time. (1D) qRT-PCR analysis of UHRF1 gene expression levels in cells as in (1C). Error bars represent the SEM from duplicate measurements. (1E) Western blot analysis protein expression of UHRF1 and indicated proteins in MM cells treated with DMSO (−) or 1 μM POM (+) for 3 days. GAPDH serves as a loading control. (1F) Thymidine incorporation of various MM cell lines treated with indicated dose of POM for 3 days. Error bars represent the SEM from technical replicates.
FIG. 2A-2E. UHRF1 expression is positively regulated by Ikaros and Aiolos in IMiDs sensitive MM cells. (2A) Western blot analysis protein expression of UHRF1, Ikaros, Aiolos, ZFP91 and Cereblon expression in control [shLuciferase (shLuc)] and cereblon knockdown (shCRBN) H929 cells treated with DMSO and 1 μM POM for 3 days. GAPDH, loading control. Arrow head, UHRF1. (2B) qRT-PCR analysis of UHRF1 gene expression levels in cells as in (2A). Data was normalized to ACTB. Error bars represent the SEM of technical duplicates. *** P<0.001 (Two-tailed unpaired Student's t-test). (2C) Western blot analysis protein expression of UHRF1, Ikaros and Aiolos in stably transduced H929 cells after Dox induction (0, 10, 50 or 100 ng/ml) for 3 days of non-target shRNA (shNT) or shRNAs targeting Ikaros (shIKZF1) or Aiolos (shIKZF3). (2D) qRT-PCR analysis of UHRF1 gene expression levels in cells as in (2C). Shown are cells induced with Dox (50 ng/ml) for 3 days. Data was normalized to GAPDH. Error bars represent the SEM of technical duplicates. *P<0.05, ** P<0.01, *** P<0.001, **** P<0.0001 (Two-tailed unpaired Student's t-test). (2E) ChIP-qPCR analysis of the occupancy Aiolos (upper panel) or H3K27ac (lower panel) occupancy at transcription star site (TSS), gene body (+7 kb) and gene end (GE) of UHRF1 gene in H929, MM1.S or RPMI 8226 cells treated with DMSO or 1 μM POM for 24 hr. ChIP with control rabbit IgG (IgG) serves as a negative control. Error bars represent the SEM of technical triplicates. * P<0.05, ** P<0.01, **** P<0.0001 (Two-tailed unpaired Student's t-test).
FIG. 6A-6D. […]

Where only a bound is given, the exact number is not on record here.

For the compound `Nc1cccc2c1C(=O)N(C1CCC(=O)NC1=O)C2=O` (stereo not shown) [POM, pomalidomide], the “time to profound reduction of UHRF1 protein level” value (H929 cells, POM 1 μM, time course) is at most 48 h. In addition, for the setting “MC/CAR and RPMI 8226 cells, 1 μM POM, 3 days”, the UHRF1 protein levels entry is “without affecting”. Further, the UHRF1 expression level result (sensitive cell lines H929, MM1.S, DF15 and U266, 1 μM POM, 72 hours) is listed as “downregulated”. Further, for the setting “shCRBN vs shLuc H929 cells, 1 μM POM, 3 days”, the “downregulation of UHRF1 protein by POM under cereblon knockdown” value is “rescued”.
